{
  "source": "patent US4238491A",
  "about": "(priority 1977, dated 1980)",
  "key": {"[1]": {"experiment": "Effect on body temperature", "type": "in vivo, mouse (dd-strain)", "details": "25 mg/kg oral"}, "[2]": {"system": "blood pressure of anesthesized dogs", "experiment": "Effect on blood pressure of anesthesized dogs", "type": "in vivo, dog (mongrel)", "details": "for average rate of blood pressure decrease: within 6 hours", "method": "Changes in blood pressure were measured for 6 hours after the administration with a multi-purpose polygraph RM-85 made by NIHON KODEN.\nThe observed effect was a blood pressure decrease immediately after administration which came up nearly to plateau 2 hours after for 1 mg/kg, and 3 hours after for 3 mg/kg and 9 mg/kg, and in all cases remained on the plateau for 6 hours after that. The DB20 value obtained from the dose-response curve of FIG. 6 was 2 mg/kg."}, "[3]": {"details": "rat, in vivo, po"}, "[4]": {"system": "rats", "experimental": "The rate were bred in individual cages under the following conditions: temperature, 23°±2° C.; relative humidity, 55±5%; free taking of solid food (CE-2, CLEA Japan, Inc.) and tap water.\nVolume of the medicine solution for one administration was dicided to be 1 ml per 100 g of weight, and the dose was administered once a day, 6 times a week over 5 weeks. The control group received the same volume of 0.2% carboxymethyl cellulose solution.\nAfter the final administration followed by 24 hours fast, the following analyses were made: Glucose (by o-toluidine-boric acid method); Total Protein (by biurett method); Blood Uria Nitrogen (diacetyl monoxime method); GOT and GPT Activities (Reitman-Frankel method); Alkaline Phosphatase Activity (Kind-King method); and Sodium and Potassium Content (flame-photometer)."}, "[5]": {"experiment": "Excretion into urine after oral administration", "details": "rabbit, 10 mg/kg", "text": "Urine was collected with urine bladder catheter for rabbits and metabolic cages for rats."}, "[6]": {"system": "noradrenaline in heart and adrenals", "details": "in vivo; cited from earlier work"}, "[7]": {"details": "in vivo; cited from earlier work"}, "[8]": {"experiment": "Change of MR content in blood (serum level)", "type": "in vivo, dogs, rabbits and rats", "method": "In case of oral administration, the animals were not permitted to eat for 24 hours, except for the experiment of biotransformation."}, "[9]": {"details": "20 mg/kg oral", "experimental": "Blood was drawn from branchial vein of dogs, vein of ear of rabbits and carotic artery of rats after slaughter. Urine was collected with urine bladder catheter for rabbits and metabolic cages for rats. Gathering bile was performed with biliary duct cannulation without anesthesia."}, "[10]": {"system": "motorability", "experiment": "Effect on motorability (rotating bar)", "type": "in vivo, mouse (dd-strain)", "details": "25 mg/kg oral; for Number of Animals that fell: 10 examined", "method": "25 mg/kg of MR were administered to 10 mice per one group. The mice were put on a wooden bar of 2 cm diameter which rotated at 10 r.p.m., and the number of mice which fell down from the bar was counted."}, "[11]": {"system": "central nervous system", "details": "in vivo; cited from earlier work"}, "[12]": {"system": "hexobarbital hypnosis", "experimental": "Period of induced sleeping was measured with righting reflex as a parameter."}, "[13]": {"system": "blood pressure of SHR", "experiment": "Antihypertensive effect by single administration, SHR, direct cannulation", "type": "in vivo, rat (spontaneously hypertensive rats", "details": "for average rate of decrease in blood pressure: over 6 hours; for blood pressure decrease: 6 hours after; for ED (20% blood pressure decrease): Rattus norvegicus, read-out: DB20 (20% blood pressure descending dose)", "method": "The effect was examined through both direct and modified tail-cuff methods using male SHRs aged 25 to 30 weeks and weighing about 300 g.\nIn the direct cannulation method, polyethylene cannules were inserted in femoral arteries of the conscious unanesthesized SHRs under back-fixation,and MR solution was administered in an amount of 0.1 mg/100 g of weight for venous injection, and 1 ml/100 g of weight for oral administration. Changes in the blood pressure over 6 hours were measured with a multi-purpose polygraph RM-85 made by NIHON KODEN Co., Ltd. MR was dissolved in 0.9% NaCl aqueous solution with 1 N-HCl, and the solution was neutralized for use."}},
  "note": "Read-outs that look alike come from different tables or passages of the source.",
  "data": [
    {"compound": "COC(=O)[C@H]1[C@H]2C[C@@H]3c4[nH]c5cc(OC)ccc5c4CCN3C[C@H]2C[C@@H](O)[C@@H]1OC", "note": "[MR, methylreserpate]", "values": [
      {"measurement": "body temperature (rectal)", "setting": "[1]; 1 hour after", "value": "36.6±0.2", "unit": "°C"},
      {"measurement": "body temperature (rectal)", "setting": "[1]; 2 hours after", "value": "36.2± 0.2", "unit": "°C"},
      {"measurement": "body temperature (rectal)", "setting": "[1]; 3 hours after", "value": "35.6±0.1", "unit": "°C"},
      {"measurement": "effect on body temperature", "setting": "[1]; 3 hours after", "value": "a slight decrease in the temperature"},
      {"measurement": "time to plateau", "setting": "[2]; 1 mg/kg intravenous", "value": 2, "unit": "h"},
      {"measurement": "time to plateau", "setting": "[2]; 3 mg/kg intravenous", "value": 3, "unit": "h"},
      {"measurement": "average rate of blood pressure decrease", "setting": "[2]; 3 mg/kg intravenous", "value": 22.3, "unit": "%"},
      {"measurement": "time to plateau", "setting": "[2]; 9 mg/kg intravenous", "value": 3, "unit": "h"},
      {"measurement": "average rate of blood pressure decrease", "setting": "[2]; 9 mg/kg intravenous", "value": 35.1, "unit": "%"},
      {"measurement": "duration of plateau", "setting": "[2]; 1, 3 and 9 mg/kg intravenous", "value": 6, "unit": "h"},
      {"measurement": "ED (DB20)", "setting": "[2]; Canis lupus familiaris, 6 h, intravenous, from dose-response curve of FIG. 6", "value": 2, "unit": "mg/kg"},
      {"measurement": "metabolism", "setting": "[3]", "value": "hardly metabolized"},
      {"measurement": "ALP", "setting": "[4]; 25.0 mg/kg, 30 days", "value": "17.0±0.93", "unit": "K.A.U."},
      {"measurement": "BUN", "setting": "[4]; 25.0 mg/kg, 30 days", "value": "15.7 ± 0.77", "unit": "mg/dL"},
      {"measurement": "GOT", "setting": "[4]; 25.0 mg/kg, 30 days", "value": "92.2±8.74", "unit": "K.U."},
      {"measurement": "Glucose", "setting": "[4]; 25.0 mg/kg, 30 days", "value": "155.4 ± 6.06", "unit": "mg/dL"},
      {"measurement": "Total Protein", "setting": "[4]; 25.0 mg/kg, 30 days", "value": "6.65 ± 0.08", "unit": "g/dL"},
      {"measurement": "ALP", "setting": "[4]; 50.0 mg/kg, 30 days", "value": "18.7±1.39", "unit": "K.A.U."},
      {"measurement": "Total Protein", "setting": "[4]; 50.0 mg/kg, 30 days", "value": "6.76 ± 0.18", "unit": "g/dL"},
      {"measurement": "BUN", "setting": "[4]; 50.0 mg/kg, 30 days, P<0.05", "value": "17.2 ± 0.56", "unit": "mg/dL"},
      {"measurement": "GOT", "setting": "[4]; 50.0 mg/kg, 30 days, P<0.05", "value": "117.1±10.48", "unit": "K.U."},
      {"measurement": "Glucose", "setting": "[4]; 50.0 mg/kg, 30 days, P<0.05", "value": "113.7 ± 5.25", "unit": "mg/dL"},
      {"measurement": "ALP", "setting": "[4]; 100.0 mg/kg, 30 days", "value": "22.7±2.91", "unit": "K.A.U."},
      {"measurement": "Total Protein", "setting": "[4]; 100.0 mg/kg, 30 days", "value": "6.57 ± 0.28", "unit": "g/dL"},
      {"measurement": "BUN", "setting": "[4]; 100.0 mg/kg, 30 days, P<0.05", "value": "17.5 ± 1.01", "unit": "mg/dL"},
      {"measurement": "GOT", "setting": "[4]; 100.0 mg/kg, 30 days, P<0.05", "value": "114.9±7.02", "unit": "K.U."},
      {"measurement": "Glucose", "setting": "[4]; 100.0 mg/kg, 30 days, P<0.05", "value": "100.5 ± 8.60", "unit": "mg/dL"},
      {"measurement": "serum glucose", "setting": "[4]; 50 and 100 mg/kg groups", "value": "decrease of glucose value"},
      {"measurement": "other serum biochemistry", "setting": "[4]; all determinations other than glucose", "value": "all within the scope of normal values"},
      {"measurement": "ALP", "setting": "[4]; rat, in vivo", "value": "18.8±10.82"},
      {"measurement": "BUN", "setting": "[4]; rat, in vivo", "value": "14.6±0.35"},
      {"measurement": "GOT", "setting": "[4]; rat, in vivo", "value": "80.4±7.55"},
      {"measurement": "Glucose", "setting": "[4]; rat, in vivo", "value": "149.3±3.36"},
      {"measurement": "Total Protein", "setting": "[4]; rat, in vivo", "value": "7.06±0.09"},
      {"measurement": "dose excreted at 48 h", "setting": "[5]", "value": "10 to 15", "unit": "%"},
      {"measurement": "noradrenaline in heart and adrenals", "setting": "[6]", "value": "slight decrease of noradrenaline in heart and adrenals"},
      {"measurement": "antihypertensive effect", "setting": "[7]", "value": "no antihypertensive effect"},
      {"measurement": "absorption in the digestive tract", "setting": "[8]; in vivo", "value": "readily absorbed"},
      {"measurement": "correlation of serum level pattern with pattern of blood pressure decrease", "setting": "[8]; in vivo", "value": "high corralation"},
      {"measurement": "absorption from digestive tracts compared with RSP and RCN", "setting": "[8]; oral", "value": "more readily absorbed"},
      {"measurement": "Tmax", "setting": "[8]; serum, po, 10 mg/kg, after administration, read-out: time of maximum serum level", "value": "1 to 2", "unit": "h"},
      {"measurement": "Area under the Curve of MR Content in Serum", "setting": "[9]", "value": 63.6},
      {"measurement": "Number of Animals that fell", "setting": "[10]; 1 hour after", "value": "0 Number of Animals"},
      {"measurement": "Number of Animals that fell", "setting": "[10]; 2 hours after", "value": "2 Number of Animals"},
      {"measurement": "effect on motorability", "setting": "[10]; 3 hours after", "value": "slight suppression of motorability"},
      {"measurement": "Number of Animals that fell", "setting": "[10]; 3 hours after", "value": "4 Number of Animals"},
      {"measurement": "inhibitory action of central nervous system", "setting": "[11]", "value": "less than that of RSP"},
      {"measurement": "Hypnotic Time", "setting": "[12]; 25 mg/kg oral", "value": "159 ± 7", "unit": "s"},
      {"measurement": "Sleeping Time", "setting": "[12]; 25 mg/kg oral", "value": "34.2 ± 6.7", "unit": "min"},
      {"measurement": "Hypnotic Time", "setting": "[12]; mouse, in vivo", "value": "144 ± 7", "unit": "s"},
      {"measurement": "Sleeping Time", "setting": "[12]; mouse, in vivo", "value": "32.9 ± 4.4", "unit": "min"},
      {"measurement": "influence on time to induce sleep and sleeping period", "setting": "[12]; mouse, in vivo", "value": "did not influence"},
      {"measurement": "average rate of decrease in blood pressure", "setting": "[13]; 2 mg/kg venous injection", "value": 13, "unit": "%"},
      {"measurement": "onset of blood pressure decrease", "setting": "[13]; 4 mg/kg oral", "value": 2, "unit": "h"},
      {"measurement": "blood pressure decrease", "setting": "[13]; 4 mg/kg oral", "value": 18, "unit": "%"},
      {"measurement": "average rate of decrease in blood pressure", "setting": "[13]; 4 mg/kg venous injection", "value": 22.5, "unit": "%"},
      {"measurement": "blood pressure decrease", "setting": "[13]; 8 mg/kg oral", "value": 26, "unit": "%"},
      {"measurement": "average rate of decrease in blood pressure", "setting": "[13]; 8 mg/kg venous injection", "value": 28, "unit": "%"},
      {"measurement": "blood pressure decrease", "setting": "[13]; 16 mg/kg oral", "value": 37, "unit": "%"},
      {"measurement": "ED (20% blood pressure decrease)", "setting": "[13]; iv, I.V.", "value": 3.5, "unit": "mg/kg"},
      {"measurement": "ED (20% blood pressure decrease)", "setting": "[13]; po, P.O.", "value": 11.9, "unit": "mg/kg"},
      {"measurement": "antihypertensive effect compared with RCN", "setting": "[13]; oral", "value": "almost the same"},
      {"measurement": "antihypertensive effect", "setting": "[13]; oral, summary for SHR and dogs", "value": "prolonged antihypertensive effect"},
      {"measurement": "antihypertensive effect compared with RCN", "setting": "[13]; venous injection", "value": "less intense"}
    ]}
  ]
}
